The subject of experiment [1] is NGF-induced vascular hyper permeability. In words: Inhibition of rat NGF-induced vascular hyper permeability. It counts as in vivo. The note with it: po, 1 mg/kg orally, read-out: Inhibition rate of vascular hyper permeability (%) (time after administration (h)). The procedure:
TrkA-inhibiting activity of the present compound was evaluted in vivo. The present compound dissolved in a medium was orally administered (adminstered volume: 5 mL/kg) to male CD(SD)IGS rats (7- to 9-week old, Charles River laboratories Japan, Inc.) shaved on the back. A medium was orally administered (adminstered volume: 5 mL/kg) to the control and normal groups. After 6, 12 or 14 hours of administration, 3 μg/mL of a NGF (Mouse 2.5s, Natural, Invitrogen) solution prepared in 0.1% BSA (Sigma-Aldrich)-containing saline was intracutaneously administered (dose; 50 μL/site) at 3 sites on the back of animals under halothane anesthesia. For the normal group, 0.1% BSA-containing saline was intracutaneously administered (dose; […]) at 3 sites on the back. Immediately after intracutaneous administration, 1% Evans Blue (Tokyo Chemical Industriy Co., Ltd.) was administered intravenously from tail (adminstered volume: 3 mL/kg). After 10 minutes of administration, the animals were sacrificed by bleeding due to incision of the abdominal aorta. The sites of intracutaneous administration on the back (3 sites) were excised and the skin samples were respectively transferred to the wells in a 48-well plate (Asahi Glass Co., Ltd.). Formamide (0.8 mL/well) was added to the plate and the plate was sealed and incubated overnight at 60° C. The formamide extraction solution (200 μL) was transferred to a 96-well plate and the absorbance (wavelength: 620 nm) of Evans Blue extracted in formamide was measured on an absorbance microplate reader (SpectraMAX 190, Molecular Devices Japan, K.K.). Standard samples of Evans Blue dissolved in formamide (0, 0.78, 1.56, 3.13, 6.25, 12.5, 25 and 50 µg/mL) were measured at the same time for the absorance (wavelength: 620 nm) to generate a calibration curve. Based on the calibration curve and the absorbances of samples, the concentrations of Evans Blue in the sample was calculated. The concentrations of Evans Blue for three skin samples collected from one aminal were averaged to obtain the vale for the animal. The rate of inhibition for rat NGF-induced vascular hyper permeability of the present compound was calculated according to the following Equation: Inhibition rate (%)={1−(AX−AN)/(AC−AN)}×100 [Eq. 3]
wherein AX: the concentration of Evans Blue of the test compound (an average value of 3 samples from one animal);
AN: the concentration of Evans Blue of the normal group (an average value of 3 samples from one animal);
AC: the concentration of Evans Blue of the control group (an average value of 3 samples from one animal).

For another experiment, the target named is human TrkA (Homo sapiens (Human), UniProt P04629). In words: Measurement of TrkA kinase-inhibiting activity using human TrkA-expressing cells. It is filed as cell-based. The conditions noted are these: CHO-K1 cells expressing human TrkA and NFAT-bla; NGF 50 ng/ml; TR-FRET reporter. The procedure: TrkA kinase-inhibiting activity in cell systems was measured using CHO-K1 cells exressing human TrkA and NFAT-bla (CellSenser™ TrkA-NFAT-bla CHO-K1 cells, Invitrogen).
On the day before the assay, CellSenser™ TrkA-NFAT-bla CHO-K1 cells were suspended in an assay medium (Opti-MEM1 Reduced Serum Medium (Invitrogen) containing 0.5% dialysed fetal bovine serum (Invitrogen), 0.1 mM nonessential amino acids (Invitrogen), 1 mM sodium pyruvate (Invitrogen) and antibiotics (100 U/mL penicillin and 100 µg/mL streptomycin (Invitrogen))) and plated at a density of 2.4×10^4 cells/40 μL/well in a 96-well clear bottom plate (Corning, Catalogue No.: 3882). In some wells were added only the assay medium at 40 μL/well (Cell-free). On the day of the assay, 10 mM of the present compound (DMSO solution) was distributed in a 96-well plate (Costar, Catalogue No.: 3363) and serially diluted with DMSO with the geometrical ratio of 3. The serial dilutions were diluted with the assay medium to 100-fold to prepare a solution of the present compound with a 10-fold concentration (DMSO concentration: 1%). To the plate where cells were plated was added the present compound at 5 µL/well and the plate was incubated in a CO2 incubator with 5% CO2, 95% Air at 37° C. for 30 minutes. For a control and a blank, the assay medium containing 1% DMSO was added at 5 µL/well in place of the solution of the present compound. Subsequently the assay medium containing NGF (Mouse 2.5s, Natural, Invitrogen) was added to the plate at 5 µL/well (final concentration of NGF: 50 ng/ml) and the plate was incubated in a CO2 incubator with 5% CO2, 95% Air at 37° C. for 5 hours. For the blank group, the assay medium was added in place of NGF at 5 µL/well. A reporter assay detection reagent ([…]) was added to the plate which was then incubated in the dark at room temperature for 120 minutes. The reporter assay detection reagent was prepared from LiveBLAzer™-FRET B/G Loading Kit (Invitrogen). On the Analyst GT (Molecular Devices Japan, K.K.) the wells were irradiated with excitation light at 405 nm and the fluorescence intensities at 460 nm and 530 nm were measured. The time resolved fluorescence resonance energy transfer (TR-FRET) ratio of each well was calculated according to the following Equation 1: TR-FRET ratio=(A460x−A460F)/(A530x−A530F) [Eq. 1]
A460x: the fluorescence intensity at 460 nm of the present compound, control or blank;
A460F: the fluorescence intensity at 460 nm of the Cell-free;
A530x: the fluorescence intensity at 530 nm of the present compound, control or blank; and
A530x: the fluorescence intensity at 530 nm of the Cell-free.
The TR-FRET inhibition rate (%) of the present compound was calculated according to the following Equation 2: Inhibition rate (%)={1−(AX−AB)/(AC−AB)}×100 [Eq. 2]
wherein AX: the TR-FRET ratio when the present compound is added;
AB: the TR-FRET of the blank; and
AC: the TR-FRET of the control.
The IC50 value by the present compound was calculated from the inhibition curve based on the inhibition rate of the present compound at respective concentrations.
Background: In TR-FRET formats the signal depends on donor and acceptor labels being close together.

Where two headings read alike, the source gives them in different places.

human TrkA, sequence (P04629 33-796): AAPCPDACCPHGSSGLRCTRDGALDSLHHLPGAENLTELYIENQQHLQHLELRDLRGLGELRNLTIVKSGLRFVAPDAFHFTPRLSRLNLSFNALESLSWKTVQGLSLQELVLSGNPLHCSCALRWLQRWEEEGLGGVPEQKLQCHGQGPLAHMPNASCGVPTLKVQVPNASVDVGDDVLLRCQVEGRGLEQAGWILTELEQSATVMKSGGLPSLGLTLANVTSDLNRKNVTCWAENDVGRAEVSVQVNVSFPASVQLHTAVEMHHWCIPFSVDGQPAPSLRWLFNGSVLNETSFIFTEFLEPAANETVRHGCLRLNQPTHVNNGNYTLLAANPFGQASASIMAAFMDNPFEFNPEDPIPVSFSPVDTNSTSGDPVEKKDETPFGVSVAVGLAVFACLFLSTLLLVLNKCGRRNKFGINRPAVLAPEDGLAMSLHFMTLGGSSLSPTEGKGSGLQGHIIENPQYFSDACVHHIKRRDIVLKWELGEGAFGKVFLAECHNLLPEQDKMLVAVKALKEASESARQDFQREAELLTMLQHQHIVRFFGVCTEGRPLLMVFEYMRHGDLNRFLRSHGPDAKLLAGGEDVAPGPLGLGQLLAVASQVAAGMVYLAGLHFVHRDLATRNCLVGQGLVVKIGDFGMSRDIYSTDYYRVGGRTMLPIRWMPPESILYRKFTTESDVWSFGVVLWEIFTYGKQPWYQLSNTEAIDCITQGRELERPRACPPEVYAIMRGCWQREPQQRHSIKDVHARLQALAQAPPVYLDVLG

`CS(=O)(=O)c1ccc(C(F)(F)F)cc1NC(=O)Nc1cnc(Oc2ccc(-c3cc(Cl)cnc3N)cc2)nc1` [Example 15-104, 1-{2-[4-(2-amino-5-chloro-3-pyridinyl)phenoxy]-5-pyrimidinyl}-3-[2-(methylsulfonyl)-5-(trifluoromethyl)phenyl]urea]: the inhibition in vivo at 1 mg/kg in experiment [1] (14 h after administration) amounted to 100%. Moreover, the IC50 (commonly the point on the concentration scale where inhibition reaches its midpoint) on human TrkA amounted to 0.0005 µM.
In the case of `CN(C)S(=O)(=O)c1ccc(C(F)(F)F)cc1NC(=O)Nc1cnc(Oc2ccc(-c3cc(C(F)(F)F)cnc3N)cc2)nc1` [Example 15-105, 2-{[(2-{4-[2-amino-5-(trifluoromethyl)-3-pyridinyl]phenoxy}-5-pyrimidinyl)carbamoyl]amino}-N,N-dimethyl-4-(trifluoromethyl)benzenesulfonamide], in experiment [1] (14 h after administration), the inhibition in vivo at 1 mg/kg is 100%. The IC50 against human TrkA was 0.004 µM.
`O=C(Nc1cnc(Oc2ccc(-c3cnn4ccc(N5CCC5)nc34)cc2)nc1)Nc1cc(C(F)(F)F)ccc1-c1cccnc1` [Example 21-1, 1-(2-(4-(5-(azetidin-1-yl)pyrazolo[1,5-a]pyrimidin-3-yl)phenoxy)pyrimidin-5-yl)-3-(2-(pyridin-3-yl)-5-(trifluoromethyl)phenyl)urea]: the inhibition in vivo at 1 mg/kg in experiment [1] (14 h after administration) came to 87%. Besides, it took 0.001 µM to reach half-maximal inhibition against human TrkA (IC50).
The matching figures for `Cn1nccc1-c1ccc(C(F)(F)F)cc1NC(=O)Nc1cnc(Oc2ccc(-c3cnn4ccc(N5CCC5)nc34)cc2)nc1` [Example 21-2, 1-(2-(4-(5-(azetidin-1-yl)pyrazolo[1,5-a]pyrimidin-3-yl)phenoxy)pyrimidin-5-yl)-3-(2-(1-methyl-H-pyrazol-5-yl)-5-(trifluoromethyl)phenyl)urea]: 100% and 0.001 µM.
For `COc1ccn2ncc(-c3ccc(Oc4ncc(NC(=O)Nc5cc(C(F)(F)F)ccc5-c5cccnc5)cn4)cc3)c2n1` [Example 21-9, 1-(2-(4-(5-methoxypyrazolo[1,5-a]pyrimidin-3-yl)phenoxy)pyrimidin-5-yl)-3-(2-(pyridin-3-yl)-5-(trifluoromethyl)phenyl)urea], the inhibition in vivo at 1 mg/kg in experiment [1] (14 h after administration) worked out at 100%. In addition, the IC50 against human TrkA stood at 0.001 µM.
Take `O=C(Nc1cnc(Oc2ccc(-c3cnn4cccnc34)cc2)nc1)Nc1cc(C(F)(F)F)ccc1-c1cccnc1` [Example 21-13, 1-(2-(4-(pyrazolo[1,5-a]pyrimidin-3-yl)phenoxy)pyrimidin-5-yl)-3-(2-(pyridin-3-yl)-5-(trifluoromethyl)phenyl)urea]: the inhibition in vivo at 1 mg/kg in experiment [1] (12 h after administration) is 100%. In addition, the IC50 at human TrkA amounted to 0.001 µM.
Take `CN(C)c1ccn2ncc(-c3ccc(Oc4ncc(NC(=O)Nc5cc(C(F)(F)F)ccc5-c5cccnc5)cn4)cc3)c2n1` [Example 21-37, 1-(2-{4-[5-(dimethylamino)pyrazolo[1,5-a]pyrimidin-3-yl]phenoxy}-5-pyrimidinyl)-3-[2-(3-pyridinyl)-5-(trifluoromethyl)phenyl]urea]: the inhibition in vivo at 1 mg/kg in experiment [1] (14 h after administration) came to 98%. On human TrkA, this molecule gave an IC50 of 0.001 µM.
As to `CN(C)c1ccn2ncc(-c3ccc(Oc4ncc(NC(=O)Nc5cc(C(F)(F)F)ccc5-c5ccnn5C)cn4)cc3)c2n1` [Example 21-51, 1-(2-{4-[5-(dimethylamino)pyrazolo[1,5-a]pyrimidin-3-yl]phenoxy}-5-pyrimidinyl)-3-[2-(1-methyl-1H-pyrazol-5-yl)-5-(trifluoromethyl)phenyl]urea], the inhibition in vivo at 1 mg/kg in experiment [1] (14 h after administration) came to 95%. The same molecule came in with an IC50 against human TrkA of 0.001 µM.
For `Cc1ccn2ncc(-c3ccc(Oc4ncc(NC(=O)Nc5cc(C(F)(F)F)ccc5-c5cccnc5)cn4)cc3)c2n1` [Example 21-65, 1-{2-[4-(5-methylpyrazolo[1,5-a]pyrimidin-3-yl)phenoxy]-5-pyrimidinyl}-3-[2-(3-pyridinyl)-5-(trifluoromethyl)phenyl]urea] the same measures were 92% and 0.0007 µM.
The matching figures for `CCNc1ccn2ncc(-c3ccc(Oc4ncc(NC(=O)Nc5cc(C(F)(F)F)ccc5-c5cccc(C)c5)cn4)cc3)c2n1` [Example 21-67, 1-(2-{4-[5-(ethylamino)pyrazolo[1,5-a]pyrimidin-3-yl]phenoxy}-5-pyrimidinyl)-3-[3′-methyl-4-(trifluoromethyl)-2-biphenylyl]urea]: 90% and 0.004 µM.
For `CN(C)c1ccn2ncc(-c3ccc(Oc4ncc(NC(=O)Nc5cc(C(F)(F)F)ccc5-c5ccccc5)cn4)cc3)c2n1` [Example 21-70, 1-(2-{4-[5-(dimethylamino)pyrazolo[1,5-a]pyrimidin-3-yl]phenoxy}-5-pyrimidinyl)-3-[4-(trifluoromethyl)-2-biphenylyl]urea] the same measures were 100% and 0.002 µM.
As for `Cc1cccc(-c2ccc(C(F)(F)F)cc2NC(=O)Nc2cnc(Oc3ccc(-c4cnn5ccc(N(C)C)nc45)cc3)nc2)c1` [Example 21-73, 1-(2-{4-[5-(dimethylamino)pyrazolo[1,5-a]pyrimidin-3-yl]phenoxy}-5-pyrimidinyl)-3-[3′-methyl-4-(trifluoromethyl)-2-biphenylyl]urea], the inhibition in vivo at 1 mg/kg in experiment [1] (14 h after administration) amounted to 92%. The molecule further returned an IC50 at human TrkA of 0.003 µM.
For `Cc1ccccc1-c1ccc(C(F)(F)F)cc1NC(=O)Nc1cnc(Oc2ccc(-c3cnn4ccc(N(C)C)nc34)cc2)nc1` [Example 21-75, 1-(2-{4-[5-(dimethylamino)pyrazolo[1,5-a]pyrimidin-3-yl]phenoxy}-5-pyrimidinyl)-3-[2′-methyl-4-(trifluoromethyl)-2-biphenylyl]urea] the same measures were 100% and 0.004 µM.
The matching figures for `COc1ccc2ncc(-c3ccc(Oc4ncc(NC(=O)Nc5cc(C(F)(F)F)ccc5-c5cccnc5)cn4)cc3)n2n1` [Example 22-8, 1-(2-(4-(6-methoxyimidazo[1,2-b]pyridazin-3-yl)phenoxy)pyrimidin-5-yl)-3-(2-(pyridin-3-yl)-5-(trifluoromethyl)phenyl)urea]: 100% and 0.001 µM.

The record behind these values is patent publication US9463192B2, “Trk-inhibiting compound” (ONO PHARMACEUTICAL CO., LTD., priority 2013, dated 2016).
